Data: ChEMBL document CHEMBL3091447, “The effect of pyridyl substituents on the thermodynamics of porphyrin binding to G-quadruplex DNA” (Bioorg Med Chem, 2013)
The source made the active and inactive calls. The rule behind the calls is not given here.

Legend:
[1] = organism: Homo sapiens; assay: Binding affinity to WT 27-mer Bcl-2 G-quadruplex DNA (unknown origin) at 40 uM by electrospray ionization mass spectra analysis
[2] = organism: Homo sapiens; assay: Binding affinity to Bcl-2 G-quadruplex DNA (unknown origin) at compound/DNA ratio 2:1 by CD spectral analysis
[3] = organism: Homo sapiens; assay: Binding affinity to WT 27-mer Bcl-2 G-quadruplex DNA (unknown origin) at 5 uM by isothermal titration calorimetric assay
[4] = organism: Homo sapiens; assay: Binding affinity to WT 27-mer Bcl-2 G-quadruplex DNA (unknown origin) at compound/DNA ratio 1 to 4 by CD spectral analysis

SMILES | Activity [1] | Activity [2] | Activity [3] | Activity [4]
C[n+]1ccc(-c2c3nc(cc4ccc([nH]4)c(-c4cc[n+](C)cc4)c4nc(cc5ccc2[nH]5)C=C4)C=C3)cc1 | Active | Active | Active | –
C[n+]1ccc(-c2c3nc(c(-c4cc[n+](C)cc4)c4ccc([nH]4)c(-c4cc[n+](C)cc4)c4ccc([nH]4)c(-c4cc[n+](C)cc4)c4nc2C=C4)C=C3)cc1 | – | Active | – | –

Second part, the molecule after the results:

Activity [1] | Activity [2] | Activity [3] | Activity [4] | SMILES
inactive | – | – | – | C[n+]1ccc(-c2c3nc(cc4ccc(cc5nc(cc6ccc2[nH]6)C=C5)[nH]4)C=C3)cc1
Active | Active | Active | Active | C[n+]1ccc(-c2c3nc(c(-c4cc[n+](C)cc4)c4ccc([nH]4)c(-c4cc[n+](C)cc4)c4nc(cc5ccc2[nH]5)C=C4)C=C3)cc1
inactive | – | – | – | C[n+]1ccc(-c2c3nc(cc4ccc(cc5nc(c(-c6cc[n+](C)cc6)c6ccc2[nH]6)C=C5)[nH]4)C=C3)cc1
